Data taken from patent US20120225135A1 (priority 2010, published 2012).

Key:
[1] = test system: Klebsiella terrigena, ATCC 33257; assay type: cell-based; conditions: pH 5
[2] = test system: Pediococcus damnosus; test: Microbiological effectiveness at cold temperatures; assay type: cell-based
[3] = test system: Enterobacter Cloacae; test: Microbiological effectiveness at cold temperatures; assay type: cell-based
[4] = test system: E. coli
[5] = test system: Pichia (Hansenula) anomala (20 percent sporulated); test: Microbiological effectiveness at cold temperatures; assay type: cell-based
[6] = test system: Poliovirus type 1, ATCC VR-59; assay type: cell-based; conditions: pH 9
[7] = test system: Giardia muris cysts; conditions: in vivo
[8] = Processing of potatoes, micro-biological control of process water
[9] = test system: biofilm; conditions: cited from earlier work
[10] = test system: Salmonella choleraesuis, ATCC 10708; assay type: cell-based; conditions: pH 5
[11] = ORP stability test (ORP meter); assay type: physicochemical
From the text: Two further samples from the original batch were taken one was packed in an amber coloured PET bottle and the second in a HDPE plastic pouch.
Both were placed in an area out of direct sunlight and further the second sample was protected from light by a cardboard box.
Measurements of their voltage were taken using an ORP meter in accordance with the testing procedure described in the ORP related articles above.
Samples were kept in an office environment in Richmond on an exposed bench.
Sampling Equipment EUTECH INSTRUMENTS Waterproof ORPTestr 10

SMILES: [O][Cl+][O-] [Chlorine Dioxide, chlorine dioxide]
- reduction in titer [1]: > 6 log 10
- Deactivation (%) [2]: 99.999%
- Deactivation (%) [3]: 99.999%
- E. coli on cut lettuce [4]: always zero
- Deactivation (%) [5]: 99.999%
- reduction in titer [6]: > 4 log 10
- reduction of infectivity for mice [7]: > 3 log 10
- micro-biological control compared with chlorine [8]: better micro-biological control agent than chlorine at 5-10 ppm
- detachment of biofilms [9]: very effective
- reduction in titer [10]: > 6 log 10
- ORP mV ([11]; Card Board Wine Cask, April 20 (2005/2006)): 991 mV
- ORP mV ([11]; Card Board Wine Cask, August 3 (2005/2006)): 987 mV
- ORP mV ([11]; Card Board Wine Cask, August 24 (2005/2006)): 1143 mV
- ORP mV ([11]; Card Board Wine Cask, January 18 (2005/2006)): 1021 mV
- ORP mV ([11]; Card Board Wine Cask, July 7 (2005/2006, first entry)): 970 mV
- ORP mV ([11]; Card Board Wine Cask, July 12 (2005/2006, last entry)): 975 mV
- ORP mV ([11]; Card Board Wine Cask, July 18 (2005/2006)): 980 mV
- ORP mV ([11]; Card Board Wine Cask, June 2 (2005/2006)): 970 mV
- ORP mV ([11]; Card Board Wine Cask, March 14 (2005/2006)): 1008 mV
- ORP mV ([11]; Card Board Wine Cask, May 11 (2005/2006)): 970 mV
- ORP mV ([11]; Card Board Wine Cask, November 29 (2005/2006)): 977 mV
- ORP mV ([11]; Card Board Wine Cask, October 21 (2005/2006)): 1036 mV
- ORP mV ([11]; Card Board Wine Cask, September 5 (2005/2006)): 1135 mV
- ORP mV ([11]; Card Board Wine Cask, September 20 (2005/2006)): 1130 mV
- ORP mV ([11]; Sample PET bottle, April 20 2005): 975 mV
- ORP mV ([11]; Sample PET bottle, Aug 8 2005): 926 mV
- ORP mV ([11]; Sample PET bottle, Aug 24 2005): 960 mV
- ORP mV ([11]; Sample PET bottle, July 10 2005): 960 mV
- ORP mV ([11]; Sample PET bottle, July 20 2005): 954 mV
- ORP mV ([11]; Sample PET bottle, June 12 2005): 970 mV
- ORP mV ([11]; Sample PET bottle, June 21 2005): 965 mV
- ORP mV ([11]; Sample PET bottle, May 10 2005): 980 mV
- ORP mV ([11]; Sample PET bottle, May 20 2005): 971 mV
- ORP mV ([11]; Sample PET bottle, Oct 12 2005): 948 mV
- ORP mV ([11]; Sample PET bottle, Oct 28 2005): 941 mV
- ORP mV ([11]; Sample PET bottle, Sept 5 2005): 955 mV
- ORP mV ([11]; Sample PET bottle, Sept 20 2005): 954 mV
